{"source": "patent US9877946B2", "about": "“Method for treating, managing, inhibiting, or preventing obesity” (RESEARCH & BUSINESS FOUNDATION SUNGKYUNKWAN UNIVERSITY, priority 2014, dated 2018)", "key": {"[1]": {"system": "UCP-1 expression in C3H10T1/2 cells", "experiment": "UCP-1 expression in differentiated C3H10T1/2 adipocytes, real-time PCR", "assay_type": "cell-based, mouse", "procedure": "Differentiated C3H10T1/2 adipocytes were treated with the butein and the derivatives for 24 hours, and the expression levels of UCP-1 and PRDM4 were investigated using real-time PCR."}, "[2]": {"system": "PRDM4 gene", "experiment": "Microarray for gene inducing bioactivity of butein", "assay_type": "cell-based"}, "[3]": {"system": "PRDM4 expression in C3H10T1/2 cells", "experiment": "PRDM4 expression in differentiated C3H10T1/2 adipocytes, real-time PCR", "assay_type": "cell-based, mouse", "settings": "24 hours, FIG. 25", "procedure": "To confirm an anti-obesity effect of the butein derivative, changes in expression levels of UCP-1 and PRDM4 by treatment of the butein derivative (Formulas 1-1 to 1-8 and 1-10 to 1-14) were measured. Differentiated C3H10T1/2 adipocytes were treated with the butein and the derivatives for 24 hours, and the expression levels of UCP-1 and PRDM4 were investigated using real-time PCR."}, "[4]": {"system": "HFD obesity-induced C57BL6/J mice", "experiment": "HFD obesity-induced mice, comparison with resveratrol-treated group", "assay_type": "in vivo", "settings": "for body weight compared to the control: 28-week-old mice", "procedure": "To confirm an anti-obesity effect of butein, obesity was induced to C57BL6/J mice by HFD, and changes in body weight according to butein treatment were confirmed. Specifically, 7-week-old mice were adjusted for 1 week, and fed with HFD (60% fat, purchased from Research Diet) for 12 weeks to induce obesity. Afterward, 30 mg/kg of butein was treated daily into 8 of the obesity-induced mice for 8 weeks. As controls, a PBS-treated group (7 mice) and a group (8 mice) treated with resveratrol, which is known to have an effect on preventing obesity, were used. After the 8-week treatment, increases in body weight were compared, and 8 weeks later, a GTT and a ITT were performed in combination with a hematological analysis."}, "[5]": {"system": "epididymal fat, subcutaneous fat and brown fat", "experiment": "Marker expression in adipose tissues of mice treated for 14 days, real-time PCR", "assay_type": "in vivo", "settings": "5 mg/kg abdominal injection, FIGS. 6 to 8", "procedure": "To examine activities of butein to increase the numbers of beige and brown adipocytes and inhibit white adipocytes in vivo, expression of markers in adipose tissues were measured after mice were treated with butein for 14 days. 6 mice were treated with 5 mg/kg of the butein through abdominal injection, and as a control, 6 mice were treated with only a solvent through abdominal injection. After 14 days, expression levels of markers for white fat and beige (brown) fat in epididymal fat, subcutaneous fat and brown fat were confirmed through real-time PCR."}, "[6]": {"system": "UCP-1 expression in MEF cells", "experiment": "UCP-1 expression in MEF cells", "assay_type": "cell-based, mouse", "settings": "DMSO-treated control, FIG. 4", "text": "An increase in expression level of UCP-1 by butein treatment in C3H10T1/2 cells was compared to those by treatment of sulfuretin, fisetin, resveratrol and genistein, which are known as materials having an influence on adipocytes, and the increase in expression level of UCP-1 by butein treatment in MEF cells was compared to a DMSO-treated group as a control."}, "[7]": {"system": "T37i cells (brown fat precursor cells)", "experiment": "Brown adipocyte marker expression in differentiated T37i cells, real-time PCR", "assay_type": "cell-based", "settings": "butein 5, 10 and 20 μM, 6 days, FIG. 2", "procedure": "To confirm an increase in number of brown adipocytes by butein treatment, brown fat precursor cells, T37i cells, were used. The T37i cells were cultured in a medium containing 5 μg/ml insulin and 1 nM triiodothyronine (T3) for 2 days, and then the differentiation into adipocytes using a medium containing 5 μg/ml insulin was induced for 6 to 8 days. The differentiation-induced adipocytes were treated with butein for 6 days by concentrations (5, 10 and 20 μM) and stained with Oil Red O, and then mRNA expression levels of PPARγ and aP2 related to the adipocyte differentiation and brown adipocyte markers, that is, UCP-1, PRDM16 and Cidea genes, were confirmed through real-time PCR."}, "[8]": {"system": "HFD obesity-induced C57BL6/J mice", "experiment": "HFD obesity-induced mice, comparison with PBS-treated group", "assay_type": "in vivo", "procedure": "To confirm an anti-obesity effect of butein, obesity was induced in C57BL6/J mice by HFD, and the mice were treated with butein through abdominal injection. 7-week-old mice were adjusted for 1 week, fed with HFD (60% fat, purchased from Research Diet) for 8 weeks to induce obesity, and butein was treated daily at 5 mg/kg and 15 mg/kg into two groups of mice, each group having 7 mice. As controls, a normal diet food intake group (5 mice) and a group fed with HFD and treated with PBS (7 mice) were used. Increases in body weight during the treatment period and weights of various organs were compared, and after 8 weeks, a glucose tolerance test (GTT) and an insulin tolerance test (ITT) were performed in combination with histological and hematological analyses."}, "[9]": {"settings": "differentiated C3H10T1/2 adipocytes, 24 hours, FIG. 25"}, "[10]": {"settings": "HFD 8 weeks, butein 5 and 15 mg/kg daily, vs HFD control"}}, "data": [{"smiles": "O=C(/C=C/c1ccc(O)c(O)c1)c1ccc(O)cc1O", "note": "[Compound 1-1, butein]", "values": [{"measurement": "expression of UCP-1 compared to sulfuretin, fisetin, resveratrol and genistein", "setting": "[1]; C3H10T1/2 cells, FIG. 3", "value": "increased more than three times"}, {"measurement": "expression of UCP-1", "setting": "[1]; butein 5, 10 and 20 μM, 24 hours, FIG. 1", "value": "the expression of UCP-1 increased"}, {"measurement": "expression level of UCP-1", "setting": "[1]; [9]", "value": "significant increases"}, {"measurement": "expression level of UCP-1", "setting": "[1]; differentiated C3H10T1/2 cells, 24 hours, FIG. 5", "value": "specifically and considerably increased"}, {"measurement": "PRDM4 gene expression", "setting": "[2]", "value": "increased in expression by more than approximately twice"}, {"measurement": "expression level of PRDM4", "setting": "[3]", "value": "significant increases"}, {"measurement": "effect of decreasing body weight compared to the resveratrol-treated group", "setting": "[4]; 30 mg/kg daily for 8 weeks after 12 weeks HFD", "value": "considerably excellent effect of decreasing a body weight"}, {"measurement": "decrease in body weight compared to the PBS-treated group", "setting": "[4]; 30 mg/kg daily for 8 weeks after 12 weeks HFD, FIG. 20", "value": "approximately 10%"}, {"measurement": "body weight compared to the control", "setting": "[4]", "value": "considerable decrease"}, {"measurement": "glucose-insulin metabolism (GTT and ITT)", "setting": "[4]; HFD-But group, FIG. 21", "value": "considerably improved"}, {"measurement": "rectal temperature", "setting": "[4]; HFD-But group, FIG. 21", "value": "increased"}, {"measurement": "food intake", "setting": "[4]; between three groups, FIG. 20C", "value": "no differences"}, {"measurement": "adipocyte markers PPARγ and aP2", "setting": "[5]", "value": "decreases"}, {"measurement": "brown adipocyte markers UCP-1, PRDM16 Cox8b and Cidea", "setting": "[5]", "value": "increases"}, {"measurement": "white adipocyte markers resistin and Nnmt", "setting": "[5]", "value": "decreases"}, {"measurement": "expression of UCP-1 compared to the control", "setting": "[6]", "value": "more than 10 times"}, {"measurement": "expression of Cidea", "setting": "[7]", "value": "increased"}, {"measurement": "expression of PRDM16", "setting": "[7]", "value": "increased"}, {"measurement": "expression of UCP-1", "setting": "[7]", "value": "increased"}, {"measurement": "UCP-1, PRDM16, Cox8b, PGC-1α, CIDEA, COX7a and Dio2 specifically expressed in beige adipocytes", "setting": "[8]; 15 mg/kg of butein, 8 weeks", "value": "increased"}, {"measurement": "glucose-insulin metabolism (GTT and ITT)", "setting": "[8]; 15 mg/kg of butein, 8 weeks", "value": "significantly improved"}, {"measurement": "body weight", "setting": "[8]; [10]", "value": "tendency to concentration-dependent decreases"}, {"measurement": "weights of adipose tissues of livers and internal organs", "setting": "[8]; [10]", "value": "tendency to concentration-dependent decreases"}, {"measurement": "hematological analysis: glucose, cholesterol, neutral fat, HDL, LDL and a fatty acid", "setting": "[8]; high dosage of butein", "value": "significant differences"}]}, {"smiles": "COc1cc(C2CC(=O)c3ccc(O)cc3O2)ccc1F", "note": "(stereo not drawn) [Compound 1-11, 2-(4-fluoro-3-methoxyphenyl)-7-hydroxychroman-4-one]", "values": [{"measurement": "expression level of UCP-1 compared to the butein-treated group (BFI)", "setting": "[1]; [9]", "value": "considerably increased"}, {"measurement": "expression level of PRDM4 compared to the butein-treated group (BFI)", "setting": "[3]", "value": "considerably increased"}]}, {"smiles": "O=C(/C=C/c1ccc(O)c(O)c1)c1ccc(O)cc1", "note": "[Compound 1-12, (E)-3-(3,4-dihydroxyphenyl)-1-(4-hydroxyphenyl)prop-2-en-1-one]", "values": [{"measurement": "expression level of UCP-1 compared to the butein-treated group (BFI)", "setting": "[1]; [9]", "value": "considerably increased"}, {"measurement": "expression level of PRDM4 compared to the butein-treated group (BFI)", "setting": "[3]", "value": "considerably increased"}]}, {"smiles": "Oc1ccc(C=Cc2cc(O)cc(O)c2)cc1", "note": "[resveratrol, reference compound]", "values": [{"measurement": "body weight compared to the control", "setting": "[4]", "value": "no changes"}, {"measurement": "food intake", "setting": "[4]; mouse, in vivo", "value": "no differences"}]}]}
